Measurements: patent US20260232684A1, “FLT3 INHIBITORS AND METHODS OF USING THE SAME” (BIOVENTURES, LLC, priority 2023, published 2026)

Experiments:
[1] = system: Ba/F3 FLT3-ITD F691M line; experiment: Cell viability, Ba/F3 FLT3-ITD F691M gatekeeper mutant; assay type: cell-based; details: IC50, 48 hours, CellTiter GLO
Method: (§1) FIG. 3. Molecular docking study of compound 1 and impact of the most common gatekeeper variants in the human kinome on activity toward […]. […] The dim FLT3 active model was built using 1PKG (KIT) as a reference using Prime (Schrodinger®). The complex of active FLT3 bound to 1 was minimized by Embrace (Schrodinger®). […] Cells were treated with inhibitor at increasing log doses (0.1 nM-10 μM) for 48 hours. Cell viability was analyzed through CellTiter GLO.
(§2) To further investigate the possibility of a hydrophobic cage interaction and its contribution to the selectivity of compound 1, we assessed the impact of substitutions of the native phenylalanine at position 691 with the other residues most commonly found at this position in the human kinome (methionine, threonine, isoleucine, or valine). Ba/F3 cells transformed with FLT3-ITD or with FLT3-ITD substitutions at position 691 were assessed for sensitivity to compound 1 (FIG. 3C).
(§3) Exponentially growing cells (1×10^3-1×10^4 cells) were plated in triplicate in a 96-well plate with 0.1 mL of RPMI 1640+10% (vol/vol) FBS. Each triplicate was either dosed with drug or DMSO vehicle control. Drug dosing was completed at log doses ranging from 0.1 nM-10 μM. Cell viability was assessed after 48 hours using CellTiter GLO (Promega). Viability values were normalized to the vehicle control average. Numerical IC50 values were calculated in GraphPad Prism 7. […]

[2] = system: Ba/F3 FLT3-ITD with Thr, Ile, or Val gatekeeper residues; experiment: Cell viability, Ba/F3 FLT3-ITD with Thr, Ile or Val gatekeeper; assay type: cell-based; details: other gatekeeper mutants (Thr, Ile, Val) compared with F691M
Method: as §1, §2, §3

[3] = system: Molm-14 F691L cells stably expressing firefly luciferase; experiment: Circulating tumor model, Molm14 F691L luciferase; assay type: in vivo
Method: FIG. 7. […] Molm14 F691L stably expressing FLuc9 were engrafted in mice through tail vein injection. Mice were imaged once every three days.
Molm-14 F691L cells stably expressing firefly luciferase were injected into the tail vein of NSG mice and tumor growth was monitored through bioluminescence.

FLT3 D835Y = FLT3 D835Y (Homo sapiens, UniProt P36888, D835Y); experiment: Enzyme kinetic analysis (5-FAM microfluidic assay), FLT3 D835Y; assay type: biochemical; details: variable ATP and inhibitor concentrations
Method: FIG. 14. Enzyme kinetic analysis of compound 1 and 2 against FLT3 and FLT3 D835Y. The 5-FAM labeled microfluidic assay was utilized and all the activities were measured using Caliper EZ Reader II with a 12-sipper chip. In the presence of variable concentrations of compound 1 or 2, phosphorylation activities of FLT3 and FLT3 D835Y were measured at different level of ATP within certain time durations.
To further assess putative binding modes of compounds 1 and 2, enzyme kinetic analyses were performed.

Row | SMILES | loss of activity relative to the Ba/F3 FLT3-ITD line [1] [fold] | loss of activity relative to the Ba/F3 FLT3-ITD line, in words [2] | tumor growth compared to gilteritinib ([3]; both doses of compound 2 (5 or 10 mg/kg) vs gilteritinib 33 mg/kg) | tumor growth (bioluminescence), in words ([3]; daily oral gavage 14 days, compound 2 5 or 10 mg/kg, gilteritinib 33 mg/kg, vs vehicle control) | binding mode / inhibition model from enzyme kinetics (FLT3 D835Y)
1 | CN(C)CCNc1ncc(F)c(-c2cnc3cc(-c4cnn(C)c4)ccn23)n1 [Compound 1] | ~100 | an even greater impact | – | – | –
2 | CC(C)(C)c1cc(NC(=O)Cc2ccc(-c3cnc4cc(-c5cnn(CCN6CCOCC6)c5)ccc4n3)cc2)no1 [Compound 2, N-(5-(tert-butyl)isoxazol-3-yl)-2-(4-(6-(1-(2-morpholinoethyl)-1H-pyrazol-4-yl)quinoxalin-2-yl)phenyl) acetamide] | – | – | statistically significant difference compared to gilteritinib | nearly halt all tumor growth | intermediate conformation between type 1 and type 2
